Results: the supplement of paper PMC11451515

Tested on: P12-Ichikawa
Experiment: cell viability relative to DMSO control; higher = less cytotoxic
Conditions: 48 h
In short: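 Viability was expressed as a per-plate percentage of DMSO wells, with cell-free wells as background. Leukemia cells (NOMO1 or SEM at 500 cells/well, P12-Ichikawa at 1000 cells/well) were adapted for at least four passages in each medium and seeded in 1536-well plates (5 μl). Library compounds in DMSO were pin-dosed over an 11-point threefold series from 47 μM to 0.79 nM, and CellTiter-Glo One luminescence was read after 48 h at 37°C.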

[1] = HPLM + 10% dialyzed FBS, 0.000781 µM
[2] = HPLM + 10% dialyzed FBS, 0.00234 µM
[3] = HPLM + 10% dialyzed FBS, 0.00702 µM
[4] = HPLM + 10% dialyzed FBS, 0.0211 µM
[5] = HPLM + 10% dialyzed FBS, 0.0632 µM
[6] = HPLM + 10% dialyzed FBS, 0.19 µM
[7] = HPLM + 10% dialyzed FBS, 0.569 µM
[8] = HPLM + 10% dialyzed FBS, 1.71 µM
[9] = HPLM + 10% dialyzed FBS, 5.12 µM
[10] = HPLM + 10% dialyzed FBS, 15.4 µM
[11] = HPLM + 10% dialyzed FBS, 46.1 µM
[12] = RPMI 5 mM glucose + 10% FBS, 0.000781 µM
[13] = RPMI 5 mM glucose + 10% FBS, 0.00234 µM
[14] = RPMI 5 mM glucose + 10% FBS, 0.00702 µM
[15] = RPMI 5 mM glucose + 10% FBS, 0.0211 µM
[16] = RPMI 5 mM glucose + 10% FBS, 0.0632 µM
[17] = RPMI 5 mM glucose + 10% FBS, 0.19 µM
[18] = RPMI 5 mM glucose + 10% FBS, 0.569 µM
[19] = RPMI 5 mM glucose + 10% FBS, 1.71 µM
[20] = RPMI 5 mM glucose + 10% FBS, 5.12 µM
[21] = RPMI 5 mM glucose + 10% FBS, 15.4 µM
[22] = RPMI 5 mM glucose + 10% FBS, 46.1 µM
[23] = RPMI 5 mM glucose + 10% dialyzed FBS, 0.000781 µM
[24] = RPMI 5 mM glucose + 10% dialyzed FBS, 0.00234 µM
[25] = RPMI 5 mM glucose + 10% dialyzed FBS, 0.00702 µM
[26] = RPMI 5 mM glucose + 10% dialyzed FBS, 0.0211 µM
[27] = RPMI 5 mM glucose + 10% dialyzed FBS, 0.0632 µM
[28] = RPMI 5 mM glucose + 10% dialyzed FBS, 0.19 µM
[29] = RPMI 5 mM glucose + 10% dialyzed FBS, 0.569 µM
[30] = RPMI 5 mM glucose + 10% dialyzed FBS, 1.71 µM
[31] = RPMI 5 mM glucose + 10% dialyzed FBS, 5.12 µM
[32] = RPMI 5 mM glucose + 10% dialyzed FBS, 15.4 µM
[33] = RPMI 5 mM glucose + 10% dialyzed FBS, 46.1 µM

| Compound | cell viability [1] | cell viability [2] | cell viability [3] | cell viability [4] | cell viability [5] | cell viability [6] | cell viability [7] | cell viability [8] | cell viability [9] | cell viability [10] | cell viability [11] | cell viability [12] | cell viability [13] | cell viability [14] | cell viability [15] | cell viability [16] | cell viability [17] | cell viability [18] | cell viability [19] | cell viability [20] | cell viability [21] | cell viability [22] | cell viability [23] | cell viability [24] | cell viability [25] | cell viability [26] | cell viability [27] | cell viability [28] | cell viability [29] | cell viability [30] | cell viability [31] | cell viability [32] | cell viability [33] |
| --- | --- | --- | --- | --- | --- | --- | --- | --- | --- | --- | --- | --- | --- | --- | --- | --- | --- | --- | --- | --- | --- | --- | --- | --- | --- | --- | --- | --- | --- | --- | --- | --- | --- |
| c1cc(OCCN2CCCCC2)cc(-c2n[nH]c3ccc(-c4nc[nH]n4)cc23)c1 | 109% | 114% | 110% | 116% | 117% | 118% | 121% | 116% | 122% | 123% | 124% | 112% | 111% | 118% | 116% | 123% | 114% | 114% | 132% | 128% | 128% | 111% | 99.4% | 111% | 114% | 19.2% | 117% | 116% | 121% | 115% | 108% | 123% | 116% |
| Cn1cc(-c2ccncc2)c(-c2ccc(OCc3ccc4ccccc4n3)cc2)n1 | 120% | 121% | 122% | 121% | 126% | 123% | 115% | 118% | 109% | 91.5% | 75.5% | 121% | 127% | 120% | 132% | 122% | 121% | 120% | 120% | 104% | 65.8% | 53.7% | – | – | – | – | – | – | – | – | – | – | – |
| NC\1=N\C(=O)N(\C=N1)[C@H]2C[C@H](O)[C@@H](CO)O2 | 101% | 103% | 106% | 108% | 115% | 108% | 101% | 74.1% | 42% | 34.9% | 32.3% | 105% | 110% | 112% | 118% | 106% | 103% | 97.2% | 70% | 37.6% | 26.5% | 27.5% | 107% | 109% | 103% | 106% | 105% | 107% | 102% | 72.5% | 37.2% | 30.3% | 31.4% |
| NC12CC3CC(CC(C3)C1)C2 | 109% | 98.8% | 103% | 103% | 105% | 111% | 108% | 103% | 117% | 114% | 105% | 102% | 119% | 118% | 120% | 119% | 123% | 112% | 113% | 110% | 109% | 107% | 104% | 113% | 109% | 111% | 115% | 116% | 115% | 118% | 115% | 105% | 103% |
| CC(C)[C@H](CO)Nc1nc(Nc2ccc(C(=O)O)c(Cl)c2)c2ncn(C(C)C)c2n1 | 119% | 120% | 116% | 121% | 119% | 115% | 96.1% | 103% | 87.1% | 96.3% | 92.9% | 111% | 124% | 117% | 134% | 127% | 130% | 95.7% | 88.4% | 89.2% | 93% | 69.9% | 119% | 122% | 130% | 111% | 120% | 129% | 102% | 94% | 87.1% | 102% | 73.7% |
| COc1cc2ncnc(Nc3ccc(F)c(Cl)c3)c2cc1OCCCN1CCOCC1 | 115% | 114% | 120% | 115% | 112% | 113% | 117% | 111% | 100% | 95.4% | 4.05% | 122% | 113% | 109% | 109% | 112% | 109% | 114% | 106% | 104% | 111% | 93.7% | 111% | 116% | 116% | 115% | 113% | 109% | 111% | 112% | 106% | 101% | 86.6% |
| O=P(O)(O)C(O)(Cc1cccnc1)P(=O)(O)[O][Na] (stereo not drawn) | 88.6% | 81.8% | 99.2% | 11.3% | 95.5% | 94.2% | 105% | 100% | 105% | 105% | 110% | 87.4% | 98.6% | 98.9% | 16.4% | 94.5% | 98.3% | 100% | 107% | 108% | 118% | 112% | 85.3% | 91.3% | 91.2% | 17.4% | 97.7% | 100% | 95.1% | 103% | 100% | 104% | 104% |
| CN(C)c1nc(N(C)C)nc(N(C)C)n1 | 108% | 108% | 104% | 104% | 101% | 103% | 94.4% | 94.3% | 89.6% | 94% | 83.5% | 103% | 100% | 98.3% | 95.9% | 90.5% | 93.9% | 98.8% | 87.2% | 87.9% | 89.9% | 93.2% | 90.3% | 99.9% | 95.5% | 99.6% | 97.1% | 91.6% | 91.9% | 85% | 87.9% | 90.7% | 86.8% |
